Laboratory results: patent US8952024B2, “Herbicidal pyrimidone derivatives” (E I du Pont de Nemours and Company, priority 2009, dated 2015)

What was measured:
Assay type in all cases: in vivo
[1] = test system: morningglory (Ipomoea spp.); assay: Test A pre-/postemergence plant response
How it was run: (§1)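 Greenhouse trial, ~10 days. Soil (loam/sand) sprayed preemergence after seeding; emerged plants (1–2 leaf, 2–10 cm) sprayed postemergence in parallel. Response = visual injury vs untreated control, 0–100.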

[2] = test system: pigweed (Amaranthus retroflexus); assay: Test A pre-/postemergence plant response
How it was run: as §1

[3] = test system: giant foxtail (Setaria faberii); assay: Test B pre-/postemergence plant response
How it was run: (§2)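 Visual ratings on a 0–100 scale (100 = complete control) were made versus untreated controls 13–15 days after treatment in a greenhouse. Compounds in surfactant-containing non-phytotoxic solvent were applied preemergence to seeds in loam–sand blend or postemergence to 1- to 4-leaf plants (2–18 cm).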

[4] = test system: goosegrass (Eleusine indica); assay: Test B pre-/postemergence plant response
How it was run: as §2

[5] = test system: johnsongrass (Sorghum halepense); assay: Test B pre-/postemergence plant response
How it was run: as §2

[6] = test system: morningglory (Ipomoea coccinea); assay: Test B pre-/postemergence plant response
How it was run: as §2

[7] = test system: wheat (Triticum aestivum); assay: Test B pre-/postemergence plant response
How it was run: as §2

[8] = test system: woolly cupgrass (Eriochloa villosa); assay: Test B pre-/postemergence plant response
How it was run: as §2

[9] = test system: barnyardgrass (Echinochloa crus-galli); assay: Test B flooded paddy test; settings: for Plant response rating, Flood, Barnyardgrass: 250 g ai/ha, flooded paddy test, visual rating on 0 to 100 scale (0 no effect, 100 complete control) after 13 to 15 days; for Plant response rating, Barnyardgrass: Flood (flooded paddy test), 62 g ai/ha, scale 0 to 100, 0 is no effect, 100 is complete control, 13 to 15 days
How it was run: (§3)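 Seedlings reaching 2 leaves are flooded 3 cm deep; test material is delivered to that water, which stays at the same depth. Plants remain in a greenhouse 13–15 days and are then scored by eye versus controls from 0 to 100.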

[10] = test system: ducksalad (Heteranthera limosa); assay: Test B flooded paddy test; settings: for Plant response rating, Flood, Ducksalad: 250 g ai/ha, flooded paddy test, visual rating on 0 to 100 scale (0 no effect, 100 complete control) after 13 to 15 days; for Plant response rating, Ducksalad: Flood (flooded paddy test), 62 g ai/ha, scale 0 to 100, 0 is no effect, 100 is complete control, 13 to 15 days
How it was run: as §3

rice (Oryza sativa) = assay: Test B flooded paddy test; settings: for Plant response rating, Flood, Rice: 250 g ai/ha, flooded paddy test, visual rating on 0 to 100 scale (0 no effect, 100 complete control) after 13 to 15 days; for Plant response rating, Rice: Flood (flooded paddy test), 62 g ai/ha, scale 0 to 100, 0 is no effect, 100 is complete control, 13 to 15 days
How it was run: as §3

[11] = test system: umbrella sedge (Cyperus difformis); assay: Test B flooded paddy test; settings: for Plant response rating, Flood, Sedge, Umbrella: 250 g ai/ha, flooded paddy test, visual rating on 0 to 100 scale (0 no effect, 100 complete control) after 13 to 15 days; for Plant response rating, Sedge, Umbrella: Flood (flooded paddy test), 62 g ai/ha, scale 0 to 100, 0 is no effect, 100 is complete control, 13 to 15 days
How it was run: as §3

[12] = Postemergence, 125 g ai/ha, visual injury, 0 to 100 scale (0 no effect, 100 complete control), approx. ten days
[13] = Postemergence, 500 g ai/ha, 0 to 100 scale, 0 = no effect, 100 = complete control, approx. ten days
[14] = Preemergence, 125 g ai/ha, 0 to 100 scale, 0 = no effect, 100 = complete control
[15] = Preemergence, 500 g ai/ha, visual injury, 0 to 100 scale (0 no effect, 100 complete control), approx. ten days
[16] = 250 g ai/ha, Preemergence, 0 to 100 scale
[17] = Postemergence, 31 g ai/ha, scale 0 to 100 (0 no effect, 100 complete control)
[18] = Postemergence, 62 g ai/ha, scale 0 (no effect) to 100 (complete control), 13 to 15 days
[19] = Postemergence, 125 g ai/ha, visual rating after 13 to 15 days, scale 0 (no effect) to 100 (complete control)
[20] = Postemergence, 250 g ai/ha, scale 0 to 100
[21] = Preemergence, 31 g ai/ha, scale 0 to 100 (0 no effect, 100 complete control)
[22] = Preemergence, 62 g ai/ha, scale 0 to 100, 0 no effect, 100 complete control
[23] = Preemergence, 125 g ai/ha, 0 to 100 scale

Cc1cccc(-n2c(-c3ccccc3)ncc(C(=O)C3=C(O)CCCC3=O)c2=O)c1C [Compound 27]
45: Plant response rating, Johnsongrass [5, 18] | Plant response rating, Johnsongrass [5, 19]
0: Plant response rating, Foxtail, Giant [3, 21] | Plant response rating, Johnsongrass [5, 21] | Plant response rating, Wheat [7, 17] | Plant response rating, Wheat [7, 21] | Plant response rating, Wheat [7, 22] | Wheat plant response rating [7, 23] | Plant response rating, Cupgrass, Woolly [8, 21] | Plant response rating, Cupgrass, Woolly [8, 22] | Plant response rating, Barnyardgrass [9] | Plant response rating, Flood, Rice (rice (Oryza sativa)) | Plant response rating, Rice (rice (Oryza sativa))
60: Morningglory plant response rating [1, 12] | Plant response rating, Cupgrass, Woolly [8, 17] | Plant response rating, Cupgrass, Woolly [8, 18] | Cupgrass, Woolly plant response rating [8, 23]
70: Plant response rating, Morningglory [1, 13] | Plant response rating, Pigweed [2, 14] | Plant response rating, Cupgrass, Woolly [8, 19]
5: Plant response rating, Foxtail, Giant [3, 22] | Plant response rating, Johnsongrass [5, 22] | Plant response rating, Wheat [7, 16] | Plant response rating, Wheat [7, 18]
98: Plant response rating, Goosegrass [4, 19] | Goosegrass plant response rating [4, 20]
80: Plant response rating, Morningglory [1, 15] | Plant response rating, Goosegrass [4, 21] | Johnsongrass plant response rating [5, 20] | Plant response rating, Morningglory [6, 18] | Plant response rating, Morningglory [6, 19] | Plant response rating, Cupgrass, Woolly [8, 16] | Cupgrass, Woolly plant response rating [8, 20]
20: Plant response rating, Morningglory [1, 14]
90: Plant response rating, Pigweed [2, 15] | Plant response rating, Foxtail, Giant [3, 19] | Foxtail, Giant plant response rating [3, 20] | Plant response rating, Goosegrass [4, 17] | Plant response rating, Goosegrass [4, 18] | Morningglory plant response rating [6, 20]
65: Plant response rating, Foxtail, Giant [3, 17]
75: Plant response rating, Ducksalad [10] | Plant response rating, Sedge, Umbrella [11]
30: Wheat plant response rating [7, 20]
40: Plant response rating, Johnsongrass [5, 17] | Plant response rating, Flood, Barnyardgrass [9]
100: Pigweed plant response rating [2, 12] | Plant response rating, Pigweed [2, 13] | Plant response rating, Goosegrass [4, 16] | Goosegrass plant response rating [4, 23] | Plant response rating, Morningglory [6, 16] | Plant response rating, Morningglory [6, 21] | Plant response rating, Morningglory [6, 22] | Morningglory plant response rating [6, 23]
10: Plant response rating, Wheat [7, 19]
85: Plant response rating, Foxtail, Giant [3, 18] | Foxtail, Giant plant response rating [3, 23] | Plant response rating, Johnsongrass [5, 16] | Plant response rating, Flood, Ducksalad [10] | Plant response rating, Flood, Sedge, Umbrella [11]
50: Johnsongrass plant response rating [5, 23] | Plant response rating, Morningglory [6, 17]
95: Plant response rating, Foxtail, Giant [3, 16]

Cc1ccc(C)c(-n2c(-c3ccccc3)ncc(C(=O)C3=C(O)CCCC3=O)c2=O)c1 [Compound 29]
98: Morningglory plant response rating [6, 20]
80: Plant response rating, Morningglory [1, 15] | Pigweed plant response rating [2, 12] | Plant response rating, Foxtail, Giant [3, 17] | Plant response rating, Morningglory [6, 19] | Plant response rating, Cupgrass, Woolly [8, 17] | Plant response rating, Flood, Sedge, Umbrella [11]
50: Plant response rating, Pigweed [2, 14] | Plant response rating, Foxtail, Giant [3, 22]
40: Plant response rating, Morningglory [1, 14] | Plant response rating, Johnsongrass [5, 19] | Wheat plant response rating [7, 20]
45: Johnsongrass plant response rating [5, 20]
10: Plant response rating, Foxtail, Giant [3, 21] | Plant response rating, Wheat [7, 19] | Plant response rating, Cupgrass, Woolly [8, 22]
20: Plant response rating, Johnsongrass [5, 18]
55: Cupgrass, Woolly plant response rating [8, 23]
70: Plant response rating, Morningglory [6, 18] | Plant response rating, Ducksalad [10] | Plant response rating, Sedge, Umbrella [11]
95: Foxtail, Giant plant response rating [3, 20] | Goosegrass plant response rating [4, 20] | Plant response rating, Goosegrass [4, 21]
85: Plant response rating, Goosegrass [4, 18] | Plant response rating, Goosegrass [4, 19] | Plant response rating, Cupgrass, Woolly [8, 18] | Plant response rating, Cupgrass, Woolly [8, 19] | Cupgrass, Woolly plant response rating [8, 20] | Plant response rating, Flood, Ducksalad [10]
100: Plant response rating, Pigweed [2, 13] | Plant response rating, Pigweed [2, 15] | Plant response rating, Foxtail, Giant [3, 16] | Foxtail, Giant plant response rating [3, 23] | Plant response rating, Goosegrass [4, 16] | Goosegrass plant response rating [4, 23] | Plant response rating, Morningglory [6, 16] | Plant response rating, Morningglory [6, 21] | Plant response rating, Morningglory [6, 22] | Morningglory plant response rating [6, 23]
5: Plant response rating, Johnsongrass [5, 22] | Plant response rating, Cupgrass, Woolly [8, 21]
30: Johnsongrass plant response rating [5, 23] | Plant response rating, Flood, Barnyardgrass [9]
90: Plant response rating, Morningglory [1, 13] | Plant response rating, Foxtail, Giant [3, 18] | Plant response rating, Foxtail, Giant [3, 19] | Plant response rating, Johnsongrass [5, 16] | Plant response rating, Cupgrass, Woolly [8, 16]
60: Morningglory plant response rating [1, 12]
0: Plant response rating, Johnsongrass [5, 21] | Plant response rating, Wheat [7, 16] | Plant response rating, Wheat [7, 18] | Plant response rating, Wheat [7, 21] | Plant response rating, Wheat [7, 22] | Wheat plant response rating [7, 23] | Plant response rating, Barnyardgrass [9] | Plant response rating, Flood, Rice (rice (Oryza sativa)) | Plant response rating, Rice (rice (Oryza sativa))
